Earlier results, collected in patent US11273125B2, “Preparation of desiccated liposomes for use in compressible delivery systems” (SMARTEK INTERNATIONAL LLC, priority 2017, dated 2022).

Conditions: poor bioavailability of the unformulated compound; route and species not given

bioavailability: approximately 5%
SMILES: COc1ccc2c(=O)cc(-c3ccccc3)oc2c1 [7-methoxyflavone]
